Assay results taken from US20210260078A1, “LOW DOSAGE INTRANASAL AMINOSTEROL DOSAGE FORMS AND METHODS OF USING THE SAME” (Enterin, Inc., priority 2018, published 2021).
Entries after “also recorded” stand apart in the source; their conditions may differ. Like-named read-outs stand apart in the source and are kept apart here.

How the values were obtained:
[1] = CSF concentration after intranasal (IN) administration; assay type: in vivo, Sprague Dawley® (SD) rats
Excerpt: (§1) The purpose of this example was to evaluate the in vivo distribution and function of aminosterols, such as Aminosterol 1436 and squalamine, following intranasal administration. This experiment relates to the amount of drug needed to obtain a therapeutic result, based on an IN route of administration. The results described below detail that aminosterols such as Aminosterol 1436 act at the level of the hypothalamus following in vivo administration, regardless of the route of administration.
(§2) Pharmacokinetic information for these tests can be found in the tables below.

[2] = Food intake and body weight after IP or ICV administration (FIG. 2B, 2C); assay type: in vivo; conditions: 10 and 40 μg ICV, 5 mg/kg IP, 10 day period
Excerpt: The purpose of this example was to evaluate the in vivo distribution of the aminosterol Aminosterol 1436 following intraperitoneal administration (IP) and ICV administration, and to determine the impact the drug has on food intake and body weight when administered IP and ICV.
This experiment is relevant as the areas of the brain where the aminosterol Aminosterol 1436 localized upon administration are known to control feeding behavior and appetite.

[3] = Plasma pharmacokinetics after intranasal (IN) administration; assay type: in vivo, Sprague Dawley® (SD) rats
Excerpt: as §1, §2

[4] = In vivo brain distribution of radiolabeled Aminosterol 1436 after ICV and IV administration; parameters: species or system rat; conditions: 3H-labeled
Excerpt: The purpose of this example was to evaluate the in vivo distribution of Aminosterol 1436 following intracerebroventricular (ICV) and intravenous (IV) administration to rats. ICV injection is an invasive injection technique of substances directly into the cerebrospinal fluid in cerebral ventricles to bypass the blood brain barrier. The results described below detail how aminosterols such as Aminosterol 1436 localize in the brain following in vivo administration, regardless of the route of administration.
Radiolabeled Aminosterol 1436 was injected into rats by two different forms of administration: ICV and IV administration.

[5] = PK profile, IV bolus compared with IN administration (FIG. 9); assay type: in vivo; conditions: rat, plasma
Excerpt: Thus, the amount of aminosterol in the bloodstream is too low to account for the observed pharmacological effect. This means that when administered IN, an aminosterol is having a pharmacological effect via a mechanism other than via plasma concentration of the drug.

[6] = Weight change after IP or IN administration (FIG. 8); assay type: in vivo, mice
Description: The purpose of this example was to evaluate and compare the impact on weight following administration of an aminosterol such as Aminosterol 1436 to mice via IP or IN.
Mice were administered: (i) intraperitoneally 1 mg/kg or 10 mg/kg of Aminosterol 1436, (ii) intranasally 0.4 mg/kg of Aminosterol 1436, or (iii) a saline control administered IN. Weight of the mice was then measured for 10 days post-administration.

[7] = Sprague-Dawley, rat, inhaled or intranasal, plasma, 0.5 mg/kg IN dose, mean
[8] = plasma, 0.5 mg/kg IN dose, mean (Table 4)

CC(C)[C@@H](CC[C@@H](C)[C@H]1CC[C@H]2[C@@H]3[C@H](O)C[C@H]4C[C@@H](NCCCNCCCCNCCCN)CC[C@]4(C)[C@H]3CC[C@]12C)OS(=O)(=O)O [Aminosterol 1436]
Drug found in CSF ([1]; Sprague-Dawley, rat, in vivo, 0.5 mg/kg): No squalamine lactate or Aminosterol 1436 was found in CSF | Effect on food intake [2]: significant impact on food intake | Blood levels after intranasal administration relative to peripherally injected ([3]; IN versus peripherally injected): 10 times | AUC(0-inf) [3, 7]: 17900 ng·h/mL | AUC(0-t) [3, 7]: 9370 ng·h/mL | Cmax [3, 7]: 1680 ng/mL | half-life [3, 7]: 7.59 h | MRT inf ([3]; Sprague-Dawley, rat, inhaled or intranasal, plasma, 0.5 mg/kg IN dose, mean, read-out: MRTInf_obs): 11.1 h | Tmax ([3]; Sprague-Dawley, rat, inhaled or intranasal, plasma, 0.5 mg/kg IN dose, mean, read-out: Tmax): 4 h | Site of localization in brain ([4]; ICV administration): localized to the same regions of the brain | Site of localization in brain ([4]; IV administration): localized in the hypothalamus | bioavailability ([5]; other: intranasal, IN 0.5 mg/kg compared with IV bolus 2 mg/kg): ~20% | AUC ([5]; IV bolus 2 mg/kg, read-out: PK profile value after IV bolus injection (AUC)): 190000 ng·h/mL | Decrease in weight, comparison in words ([6]; 0.4 mg/kg IN, 10 days post-administration): comparable to 10 mg/kg of intraperitoneally administered Aminosterol 1436 | Decrease in weight ([6]; 0.4 mg/kg intranasal (IN)): about 5% | Effect on weight (anti-feeding effect) ([6]; 1 mg/kg IP, compared with IN saline control): compared similarly to the intranasally administered saline control; also recorded: no anti-feeding effect | Decrease in weight ([6]; 10 mg/kg IP): about 19%

CC(C)[C@@H](CC[C@@H](C)[C@H]1CC[C@H]2[C@@H]3[C@H](O)C[C@H]4C[C@@H](NCCCNCCCCN)CC[C@]4(C)[C@H]3CC[C@]12C)OS(=O)(=O)O.C[C@H](O)C(=O)O.O [Squalamine Lactate]
Drug found in CSF ([1]; CSF, 0.5 mg/kg IN): No squalamine lactate or Aminosterol 1436 was found in CSF | AUCInf [3, 8]: 7863 ng·h/mL | AUClast [3, 8]: 5296 ng·h/mL | MRTInf_obs [3, 8]: 7.12 H | T1/2 [3, 8]: 4.55 H | Tmax [3, 8]: 1.00 H
